# Assays:
# [1] = system: Sephadex A-25 induced pneumonitis in Wistar rats; assay: Sephadex-induced (6-day) pneumonitis in rats; format: in vivo, rat
# Method: The Model of Sephadex-Induced (6-Day) Pneumonitis in Rats
# Male Wistar rats weighing 270-300 g were used in the tests.
# Inflammation in the lungs was induced by a single inhalation of sephadex A-25 (hydrophilic powder with particle sizes from 20 to 80 μm) at dose 5 mg/kg using a dosing device which is a laboratory analog of the inhaler “Cyclohaler” (the Scientific-Research Institute for Pulmonology of the RF).
# Sephadex A-25 at dose 5 mg per 1 kg body weight was administered to rats under ester anesthesia using an original dosing device for inhalation administering dry powders. Following administration of Sephadex A-25, Wistar rats rapidly recovered form anesthesia, and no peculiarities in their behavior and respiration character were noted. The substances in the form of a dry powder were administered by inhalation at dose 500 μg/kg 1 hour post Sephadex administration, then for 5 days in succession once daily at one and the same morning hours. The control was represented by two groups: a group of intact animals, and a group of rats administered once with Sephadex by inhalation.
# The results of therapeutic action of pharmacological substances on pneumonitis development were assessed using morphological and morphometric parameters (volume density and alveolitis) 6 days post aerosol Sephadex administration.
# Histological examinations of the lungs stained by hematoxyline and eosine.
# 4-5 μm thick histological lung slices were prepared wherein neutrophil number was calculated as well as volume density of alveolitis and emphysema was assessed using the Avtandilov's mesh [Avtandilov G. G., Vvedeniye v kolichestvennuyu pathologicheskuyu morphologiyu.//Moscow. “Meditsina” publishers. 1980. p. 203]. Morphometric examination of pulmonary lymphoid tissue was also carried out. To this end, micro preparations of the lungs were fixed according to the method of Beinenstock et al [Bienenstock J., Johnson N., Perey D. Y. E. Bronchial lymphoid tissue 1. Morphologic characteristics//Lab. Invest. 1973. v. 28 p. 693-698.] […] Volume density of alveolitis and emphysema was determined using the point calculation method.
# Broncho-alveolar wash-off was obtained in rats and guinea pigs under hexenal anesthesia by double washing the lungs through the trachea with 10 ml normal saline. Viability of cells was determined in the test with tryptane blue. Absolute number of cells in 1 ml (cytosis) was determined in the broncho-alveolar wash-off liquid (BAW) using the Goryaev's chamber. In the smears of the BAW liquid precipitate obtained using centrifugation at 200 g for 10 minutes and then stained according to Romanovskcy-Gimza, endopulmonary cytogram was calculated (in percent) [Avtsyn A. P., Lukomskij G. I., Romanova L. K. et al. Endopul'monal'naya cytogramma.//Sov. […]
# [2] = system: hypercholesterolemia in Wistar rats; assay: Model of hypercholesterolemia in rats (oral cholesterol loading); format: in vivo, rat
# Method: The study was carried out on male Wistar rats weighing 200±20 g. Hyperlipidemia was induced by oral administration of cholesterol loading, oily cholesterol suspension:
# olive oil (Acorsa, Spain)—5 ml/kg weigh of animals;
# cholesterol (Sigma, USA)—1 g/kg weight;
# sodium cholate (Sigma, USA)—100 mg/kg weight.
# As a reference preparation, the preparation from the group of statines “Mevacor” (Lovastatine) manufactured by the firm Merck Sharp & Dohn was used at dose 40 mg/kg. Cholesterol suspension was administered daily in the morning for 10 days. The compounds tested (at dose 500 μg/kg) and the reference preparation (at dose 40 mg/kg) were administered to the animals togester with cholesterol suspension for 10 days. All the animals received a standard briquetted forage.
# The animals were divided into the following groups:
# “Control”—intact animals (n=5);
# “Cholesterol”—rats that orally received cholesterol loading (n=10);
# “Lovastatine”—rats that orally received cholesterol loading and Lovastatine (n=10);
# “Compound IV”—rats that orally received cholesterol loading and the tested compound IV (n=10).
# Blood was sampled at days 5, 8 and 10 of the experiment.
# Statistical processing of the hypolipidemic action data of the tested substances was carried out with regard to the “Cholesterol” group (Table 13).
# Experimental groups included:
# 1) “Cholesterol”—rats orally administered with oily cholesterol suspension for 10 days;
# 2) “Compound IV”—rats orally administered with oily cholesterol suspension and the tested compound N;
# 3) “Compound IV—1Na”—rats orally administered with oily cholesterol suspension and the tested mono-sodium salt of compound N;
# 4) “Compound IV—2Na”—rats orally administered with oily cholesterol suspension and the tested di-sodium salt of compound N;
# 5) “Compound V—1Na”—rats orally administered with oily cholesterol suspension and the tested mono-sodium salt of the compound V;
# 6) “Compound III—1Na”—rats orally administered with oily cholesterol suspension and the tested mono-sodium salt of the compound III;
# 7) “Compound II—1Na”—rats orally administered with oily cholesterol suspension and the tested mono-sodium salt of the compound II;
# 8) “Sim”—rats orally administered with oily cholesterol suspension and Simvastatine;
# 9) control—intact rats before beginning the test.
# At day 10 of the test blood samples were taken following decapitation of the animals. The animals fasted for 12 hours prior to decapitation.
# Blood serum total cholesterol, triglycerides and high density lipoprotein cholesterol (HDLC) were measured. Low and very low density lipoprotein cholesterol was calculated by the difference between total cholesterol and HDL cholesterol.
# Blood serum total cholesterol and triglycerides were determined using the enzymatic methods.
# Cholesterol level in high density lipoproteins (α-LP) was determined using the precipitation method of LDL and VLDL with phosphotungstic acid and magnesium ions.
# Data in the tables are presented as a mean value±standard error. Significance of differences between the groups “cholesterol” and “preparation.” was assessed by the two-sampled Student's t-test.
# [3] = day 5 of the experiment (Table 15)
# [4] = day 8 of the experiment (Table 16)
# [5] = day 10 of the experiment (Table 17)
# [6] = dose 500 μg/kg, vs Cholesterol group
# [7] = oral 10 days with cholesterol loading, tested compound 500 μg/kg, reference 40 mg/kg (Table 13)
smiles,measurement,setting,value
"O=C(O)CCCC(=O)N[C@@H](Cc1c[nH]cn1)C(=O)O [Compound IV, N^α-glutaryl-L-histidine]",emphysema (histological examination of the lungs),[1]; 500 μg/kg by inhalation,not practically detected
same,infiltration of interalveolar septa with neutrophils,[1]; 500 μg/kg by inhalation,not noted
same,prevalence of alveolitis (histological examination of the lungs),"[1]; compared to the model group, 500 μg/kg by inhalation",significantly lower
same,Absolute number of Macrophags in 1 μl BAW,[1]; dry powder by inhalation 500 μg/kg,152.4 ± 18.5 cells in 1 μl BAW
same,"Total cholesterol, HDL",[2]; [3],35.8 ± 1.2 mg/100 ml
same,"Total cholesterol, LDL + VLDL",[2]; [3],48.5 ± 4.5 mg/100 ml
same,"Triglycerides, Serum",[2]; [3],120.6 ± 8.9 mg/100 ml
same,"Total cholesterol, Serum","[2]; day 5 of the experiment (Table 15), oral with oily cholesterol suspension",84.2 ± 3.9 mg/100 ml
same,"Total cholesterol, HDL",[2]; [4],35.9 ± 1.2 mg/100 ml
same,"Total cholesterol, LDL + VLDL",[2]; [4],67.3 ± 8.7 mg/100 ml
same,"Total cholesterol, Serum",[2]; [4],103.3 ± 8.1 mg/100 ml
same,"Triglycerides, Serum",[2]; [4],154.2 ± 11.4 mg/100 ml
same,"Total cholesterol, HDL",[2]; [5],36.5 ± 0.9 mg/100 ml
same,"Total cholesterol, LDL + VLDL",[2]; [5],58.7 ± 5.3 mg/100 ml
same,"Total cholesterol, Serum",[2]; [5],95.2 ± 5.4 mg/100 ml
same,"Triglycerides, Serum",[2]; [5],143.3 ± 8.9 mg/100 ml
same,lowering LDL cholesterol,[2]; [6],29.8%
same,lowering hepatic cholesterol,[2]; [6],22.7%
same,lowering hepatic triglycerides,[2]; [6],19%
same,lowering serum total cholesterol,[2]; [6],19.5%
same,"Total cholesterol, CHDL",[2]; [7],50.5 ± 1.3 mg/100 ml
same,"Total cholesterol, CLLD + CLVLD",[2]; [7],46.1 ± 0.9 mg/100 ml
same,"Total cholesterol, Liver",[2]; [7],2.78 ± 0.28 mg/g of tissue
same,"Total cholesterol, Serum",[2]; [7],96.6 ± 5.7 mg/100 ml
same,"Triglycerids, Liver",[2]; [7],5.53 ± 0.19 mg/g of tissue
same,"Triglycerids, Serum",[2]; [7],95.1 ± 7.9 mg/100 ml
